Tests used:
Type in all cases: in vivo
[1] = system: Tomato Tumbler seeds; experiment: Root elongation in germinating seeds with calcium effectors; settings: 5 days; for Root length: 6 mM EGTA or 5 mM manganese chloride, 25° C., water 6.5; for Root elongation, in words: 6 mM EGTA, 5 mM manganese chloride
Procedure: (§1) To investigate other mechanisms that might disrupt calcium utilization by germinating seeds leading to adverse effects on root formation and elongation, a number of known calcium effectors were analyzed. EGTA is a well-known calcium-chelating compound which binds free calcium ions. The element, manganese, has been characterized to act as a calcium channel blocker in the cellular environment of the plasma membrane, thereby inhibiting uptake and utilization of calcium by the cell. Finally, auxins, like IBA, can disrupt calcium signaling pathways in the cell, thereby disrupting cellular developmental processes like rooting. For these experiments, seeds were germinated in the presence of these compounds, and the lengths of the roots (in mm) from 20 randomly-selected seeds (per treatment) were measured. These values were then compared to the lengths of the roots from 20 randomly-selected seeds germinated in water during the same time period and under the same environmental conditions.
(§2) Approximately 100 seeds of tomato (variety Tumbler commercially available from Ball Horticultural Company, 622 Town Road, West Chicago, Ill. 60185) were germinated in 125 mL Erlenmeyer flasks containing either 40 mL water, 6 mM EGTA or 5 mM manganese chloride at 25° C. in a lighted growth room on an orbital shaker. After 5 days, root lengths were measured and recorded (see Table 1 below).

[2] = system: Pansy Baby Bingo Sky Blue primed seeds; experiment: as above; settings: 5 days; for Inhibition of root length versus water-treated seeds: 6 mM EGTA, 5 mM manganese chloride; for Root length: primed, 6 mM EGTA or 5 mM manganese chloride, 25° C., water 10.3
Procedure: as §1
as §2, with “100 primed” for “100”, “pansy” for “tomato”, “Baby Bingo Sky Blue” for “Tumbler”

[3] = system: Pepper Holiday Flame seeds; experiment: as above; settings: 5 days; for Root length: 6 mM EGTA or 5 mM manganese chloride, 25° C., water 6.5; for Root elongation, in words: 6 mM EGTA, 5 mM manganese chloride
Procedure: as §1
as §2, with “pepper” for “tomato”, “Holiday Flame” for “Tumbler”

[4] = system: Impatiens Dazzler ® Pink seeds; experiment: as above; settings: 6 mM EGTA, 5 days; for Root length: 5 mM manganese chloride or 8 ppm IBA, 25° C., 20 seeds, water 6.9; for Root growth, in words: 5 mM manganese chloride, 8 ppm IBA
Procedure: as §1
as §2, with “impatiens” for “tomato”, “Dazzler® Pink” for “Tumbler”, “EGTA,” for “EGTA or”, “chloride or 8 ppm IBA” for “chloride”

[5] = system: Rice Cypress seeds; experiment: as above; settings: 5 days; for Root length: 6 mM EGTA or 5 mM manganese chloride, 25° C., water 15.6
Procedure: as §1
Approximately 100 seeds of rice (variety Cypress obtained from LSU Rice Research Station) were germinated in 125 mL Erlenmeyer flasks containing either 40 mL water, 6 mM EGTA or 5 mM manganese chloride at 25° C. in a lighted growth room on an orbital shaker. After 5 days, root lengths were measured and recorded (see Table 1 below).

[6] = system: germinating impatiens seeds; experiment: Root development of germinating seeds with sucrose in nutrient medium; settings: 1% (w/v) in the nutrient medium, liquid or solid environment
Text: (§3) Also different, Arabidopsis, but not impatiens, root development was sensitive to an ammonium/potassium ionic imbalance in the nutrient medium.

[7] = system: Arabidopsis seeds; experiment: as above; settings: 1% (w/v) added to the nutrient medium
Text: as §3

[8] = system: Vinca Coconut Cooler seeds; experiment: Root elongation in germinating seeds with calcium effectors; settings: 6 mM EGTA or 5 mM manganese chloride, 5 days, 25° C.
Procedure: as §1
After 5 days, root lengths were measured and recorded (see Table 1 below).

Row | Molecule | Root length [1] | Root elongation, in words [1] | Inhibition of root length versus water-treated seeds [2] | Root length [2] | Root length [3] | Root elongation, in words [3] | Root length [4] | Root growth, in words [4] | Root length [5] | Inhibition of root elongation ([5]; 6 mM EGTA) | root development, in words [6] | root development, in words [7] | Root length ([8]; water 12.3) | Root length ([8]; water 12.3, listed as manganese) | Root elongation, in words ([5]; 5 mM manganese chloride)
1 | O=C(O)CN(CCOCCOCCN(CC(=O)O)CC(=O)O)CC(=O)O [EGTA, ethylene glycol-bis (β-aminoethyl ether)-N,N,N′,N′-tetraacetic acid] | 1.8 mm | significantly inhibited | an even greater extent | 0.4 mm | 1.8 mm | inhibited root elongation | 0.0 mm | totally inhibited | 3.2 mm | ~80% |  |  |  |  | 
2 | O=C(O)CCCc1c[nH]c2ccccc12 [IBA, indole-3-butyric acid] |  |  |  |  |  |  | 0.0 mm | totally inhibited |  |  |  |  |  |  | 
3 | OC[C@H]1O[C@@](CO)(O[C@H]2O[C@H](CO)[C@@H](O)[C@H](O)[C@H]2O)[C@@H](O)[C@@H]1O [sucrose] |  |  |  |  |  |  |  |  |  |  | severely inhibited | stimulate root development |  |  | 
4 | manganese chloride | 4.4 mm | Modest inhibition | 70-90% | 1.9 mm | 4.2 mm | inhibited root elongation | 0.2 mm | Some minor root growth | 15.6 mm |  |  |  | 3.0 mm | 3 mm | no effect

— patent publication US20020026659A1, “Developed seed and methods for making the same” (priority 1999, published 2002)
